According to patent US6608082B1, “Treatment of erectile dysfunction using isoquinoline compound melanocortin receptor ligands” (Lion Bioscience AG, priority 1998, dated 2003):
pEC50, pIC50: −log10 of the molar value. Like-named read-outs stand apart in the source and are kept apart here.

Tests used:
MCR-5 = biological target: T1, MCR-5 (Homo sapiens, UniProt P33032); test: cAMP assay for melanocortin receptors, HEK 293 cells expressing MCR-5; assay type: cell-based; details: read-out: MC-5 EC50 (cAMP)
T1 construct: expressed in transfected cells; host or cells: HEK 293
T1 sequence (P33032 whole entry): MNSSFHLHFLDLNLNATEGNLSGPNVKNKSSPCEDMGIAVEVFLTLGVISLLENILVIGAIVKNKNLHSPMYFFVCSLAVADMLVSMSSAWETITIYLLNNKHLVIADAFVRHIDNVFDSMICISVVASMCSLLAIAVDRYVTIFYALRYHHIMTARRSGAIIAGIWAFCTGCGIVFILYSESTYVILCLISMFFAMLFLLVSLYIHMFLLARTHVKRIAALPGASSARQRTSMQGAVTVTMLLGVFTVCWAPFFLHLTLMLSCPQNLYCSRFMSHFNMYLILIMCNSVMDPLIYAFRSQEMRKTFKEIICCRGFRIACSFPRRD
Experimental: (§1) HEK 293 cells expressing MCR-1, MCR-3, MCR-4 and MCR-5 were used (see Example II). Cells were plated at 20,000 cells per well in a 96-well plate coated with collagen. The next day, cells were pretreated with 75 μl of 0.4 mM 3-isobutyl-1-methylxanthine (IBMX) in low serum medium containing DMEM, 25 mM HEPES, non-essential amino acids, vitamins, 100 units/ml penicillin, 100 μg/ml streptomycin and 0.1% COSMIC CALF SERUM. IBMX is an inhibitor of cAMP phosphodiesterase. The pretreatment was carried out for 10 min at 37° C.
(§2) Following pretreatment, 25 μl of diluted isoquinoline compound was added to the wells, and cells were incubated for 15 min at 37° C. Cells were lysed by adding 25 μl saponin lysis buffer and incubating 2 to 5 min. Plates were covered and stored at −20° C.
(§3) cAMP concentration was determined by ELISA. Briefly, 96 well ELISA plates were coated with goat anti-cAMP antibody in PBS for 12 to 72 hr at 4° C. 50 μl of sample was mixed with 50 μl of cAMP ELISA buffer containing 1% bovine serum albumin, 10% heat-inactivated donor horse serum, 1% normal mouse serum and 0.05% TWEEN-20 in PBS, and the diluted sample was added to the coated ELISA plate. Standards of known concentrations of cAMP were added to separate wells. 25 μl of 16 ng/ml cAMP-conjugated horse radish peroxidase (HRP) (cAMP-HRP) was added to each well, and the plates were […] at room temperature. Plates were washed and the binding of cAMP-HRP was detected with 3,3′,5,5′-tetramethylbenzidine (TMB) and hydrogen peroxide using standard immunoassay procedures.
(§4) Various isoquinoline compounds were tested for their ability to activate MC receptor by measuring cAMP as described in Example III.

MCR-4 [1] = biological target: T2, MCR-4 (Homo sapiens, UniProt P32245); test: cAMP assay for melanocortin receptors, HEK 293 cells expressing MCR-4; assay type: cell-based; details: for pEC50: read-out: MC-4 EC50 (cAMP); for MC-4 Max (pmole) cAMP produced: maximum amount of cAMP
T2 construct: expressed in transfected cells; host or cells: HEK 293
T2 sequence (P32245 whole entry): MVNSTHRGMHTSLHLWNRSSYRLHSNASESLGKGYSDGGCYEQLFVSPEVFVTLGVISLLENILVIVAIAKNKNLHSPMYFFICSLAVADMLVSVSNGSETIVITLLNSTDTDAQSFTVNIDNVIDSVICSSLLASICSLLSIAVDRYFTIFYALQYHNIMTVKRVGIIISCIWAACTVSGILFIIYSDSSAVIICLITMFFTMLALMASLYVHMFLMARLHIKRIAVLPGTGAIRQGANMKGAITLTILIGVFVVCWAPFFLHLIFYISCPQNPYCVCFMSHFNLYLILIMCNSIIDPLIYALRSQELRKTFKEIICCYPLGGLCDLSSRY
Experimental: as §1, §2, §3, §4

MCR-1 = biological target: T3, MCR-1 (Homo sapiens, UniProt Q01726); test: cAMP assay for melanocortin receptors, HEK 293 cells expressing MCR-1; assay type: cell-based; details: for pEC50: 50% of maximal cAMP production, read-out: MC-1 EC50 (cAMP); for MC-1 Max (pmole) cAMP produced: maximum amount of cAMP
T3 construct: expressed in transfected cells; host or cells: HEK 293
T3 sequence (Q01726 whole entry): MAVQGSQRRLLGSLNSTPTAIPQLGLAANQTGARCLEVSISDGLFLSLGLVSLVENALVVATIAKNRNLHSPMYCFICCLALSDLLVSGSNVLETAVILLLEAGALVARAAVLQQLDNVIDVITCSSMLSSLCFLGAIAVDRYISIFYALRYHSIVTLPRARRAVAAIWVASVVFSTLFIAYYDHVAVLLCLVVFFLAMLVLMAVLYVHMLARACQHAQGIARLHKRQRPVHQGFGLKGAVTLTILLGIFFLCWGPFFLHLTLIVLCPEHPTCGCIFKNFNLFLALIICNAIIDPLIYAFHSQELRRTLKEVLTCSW
Experimental: as §1, §2, §3, §4

MCR-3 = biological target: T4, MCR-3 (Homo sapiens, UniProt P41968); test: cAMP assay for melanocortin receptors, HEK 293 cells expressing MCR-3; assay type: cell-based; details: read-out: MC-3 EC50 (cAMP)
T4 construct: expressed in transfected cells; host or cells: HEK 293
T4 sequence (P41968 whole entry): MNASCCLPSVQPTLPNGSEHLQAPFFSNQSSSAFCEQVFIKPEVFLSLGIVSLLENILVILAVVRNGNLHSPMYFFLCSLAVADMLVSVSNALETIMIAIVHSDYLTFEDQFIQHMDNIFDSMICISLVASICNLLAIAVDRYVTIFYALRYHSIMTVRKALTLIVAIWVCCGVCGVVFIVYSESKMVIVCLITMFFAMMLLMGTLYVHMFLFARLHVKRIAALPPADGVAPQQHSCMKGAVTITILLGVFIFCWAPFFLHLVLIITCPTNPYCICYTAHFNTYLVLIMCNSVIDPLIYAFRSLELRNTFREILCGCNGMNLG
Experimental: as §1, §2, §3, §4

MCR-4 [2] = biological target: T2, MCR-4; test: Melanocortin receptor binding assay, competition with 125I-HP 467, HEK 293 cells expressing hMCR-4; details: read-out: MC-4 IC50
Outline: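 Test compounds compete on intact HEK 293 cells carrying hMCR-1 (2×10^4 per tube) or hMCR-4 (4×10^3 per tube), suspended in PBS, 10% calf serum, 1 mM CaCl2.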

[3] = system: arachidonic acid induced dermal inflammation; test: Arachidonic acid induced dermal inflammation (ear thickness); assay type: in vivo, Female BALB/c mice; details: for inflammation in response to arachadonic acid administration: mouse, in vivo; for reduction in the level of arachidonic acid-induced dermal inflammation: intraperitoneally, TRG 2409-2 or TRG 2409-14 100 or 300 μg/mouse, FIG. 5
Experimental: Female BALB/c mice (17-22 g) were used and administered the test isoquinoline compounds or positive control compounds 30 to 60 min prior to topical application of arachidonic acid. Indomethacin and HP 228 were used as positive controls. Compounds were administered orally (p.o.) or intraperitoneally (i.p.). Initial ear thickness (left and right) was measured using spring loaded micro-calipers. Arachidonic acid was applied to mice anesthetized with a cocktail of ketamine/xylazine (7.0 mg/ml and 0.6 mg/ml, respectively) administered i.p. (300 μl/mouse). Utilizing a micro-pipette, 20 μl of arachidonic acid solution (100 mg/ml ethanol or acetone) was applied to the right ear (10 μl to inner and 10 μl to outer surfaces of […] for a total of 2 mg arachidonic acid per right ear), and 20 μl of vehicle (ethanol or acetone) was applied to the left ear. Mice were returned to their cages to recover. Mice were again anesthetized 50 min after arachidonic acid application and their ears measured.
Dermal inflammation was determined by subtracting the difference of the vehicle treated left ear (L60−L0) from the difference of the arachidonic acid treated right ear (R60−R0). Ear thickness measurements were averaged for each group, and the responses in the vehicle treated control group (Cr; saline or PBS) were subtracted from the response noted in the isoquinoline compound treated group (Tr) to give the relative inflammatory response for each treatment group compared to the control group. The percent inhibition is defined by the equation: % inhibition=(Cr−Tr)/(Cr)×100.

[4] = 100 μg/mouse administered intraperitoneally, FIG. 4
[5] = TRG 2408 and TRG 2409 libraries, inhibition of 125I-HP 467 binding
[6] = competition with 125I-HP 467, HEK 293 cells expressing MCR-4

CNC(CN)CN1Cc2ccccc2C(CNC2CCCCC2)C1c1ccc(O)cc1 (centres unmarked) [TRG 2405-156]
pEC50 (MCR-5): < 4.30
pEC50 (MCR-4 [1]): < 4.30
pEC50 (MCR-1): 4.69
MC-1 Max (pmole) cAMP produced (MCR-1): 16.01 pmol
pEC50 (MCR-3): < 4.30
pIC50 (MCR-4 [2]; TRG 2405 section, inhibition of binding of 125I-HP 467, HEK 293 cells expressing MCR-4): 4.69

CNC(CN)CCCCN1Cc2ccccc2C(CNC2CCCCC2)C1c1ccc(Cl)cc1Cl (centres unmarked) [TRG 2405-190]
MC-4 Max (pmole) cAMP produced (MCR-4 [1]): 100.48 pmol
pEC50 (MCR-4 [1]): 4.33
pEC50 (MCR-1): 5.07
MC-1 Max (pmole) cAMP produced (MCR-1): 33.56 pmol
inhibition of arachidonic acid induced dermal inflammation [3, 4]: inhibition of arachidonic acid induced dermal inflammation
inflammation in response to arachadonic acid administration [3]: reduced inflammation

CNC(CN)CCCCN1Cc2ccccc2C(CNC2CCCCC2)C1c1ccc(N(C)C)cc1 (centres unmarked) [TRG 2405-235]
pEC50 (MCR-4 [1]): < 4.30
pEC50 (MCR-1): 4.52
MC-1 Max (pmole) cAMP produced (MCR-1): 17.07 pmol

CNC(CN)CCCCN1Cc2ccccc2C(CNC2CCCCC2)C1c1ccc(C(F)(F)F)cc1 (centres unmarked) [TRG 2405-238]
pEC50 (MCR-5): < 4.30
pEC50 (MCR-4 [1]): < 4.30
pEC50 (MCR-1): 4.70
MC-1 Max (pmole) cAMP produced (MCR-1): 29.82 pmol
pEC50 (MCR-3): < 4.30

CCNc1ccc(C2C(CNC3CCCCC3)c3ccccc3CN2CCCCC(CN)NC)cc1 (centres unmarked) [TRG 2405-239]
pEC50 (MCR-5): < 4.30
pEC50 (MCR-4 [1]): < 4.30
pEC50 (MCR-1): 5.44
MC-1 Max (pmole) cAMP produced (MCR-1): 20.6 pmol
pEC50 (MCR-3): < 4.30

CNC(CN)CCCCN1Cc2ccccc2C(CNC2CCCCC2)C1c1ccc(-c2ccccc2)cc1 (centres unmarked) [TRG 2405-241]
pEC50 (MCR-5): < 4.30
MC-4 Max (pmole) cAMP produced (MCR-4 [1]): 32.32 pmol
pEC50 (MCR-4 [1]): 4.55
pEC50 (MCR-1): 4.98
MC-1 Max (pmole) cAMP produced (MCR-1): 66.67 pmol
pEC50 (MCR-3): < 4.30
inhibition of arachidonic acid induced dermal inflammation [3, 4]: inhibition of arachidonic acid induced dermal inflammation
inhibition of arachidonic acid induced dermal inflammation ([3]; administered intraperitoneally, TRG 2405-241 300 μg/mouse, HP 228 100 μg/mouse, FIG. 3): comparable to that seen with HP 228
inhibition of arachidonic acid induced dermal inflammation ([3]; administered orally, TRG 2405-241 600 μg/mouse, indomethacin 1 mg/mouse, FIG. 2): comparable to that seen with indomethacin
inflammation in response to arachadonic acid administration [3]: reduced inflammation

CNC(CN)CCCCN1Cc2ccccc2C(CNC2CCCCC2)C1c1ccc(Br)cc1 (centres unmarked) [TRG 2405-242]
pEC50 (MCR-5): < 4.30
pEC50 (MCR-4 [1]): < 4.30
pEC50 (MCR-1): 4.88
MC-1 Max (pmole) cAMP produced (MCR-1): 55.89 pmol
pEC50 (MCR-3): < 4.30

CNC(CN)CCCCN1Cc2ccccc2C(CNC2CCCCC2)C1c1ccc(O)cc1 (centres unmarked) [TRG 2405-246]
pEC50 (MCR-5): < 4.30
pEC50 (MCR-4 [1]): < 4.30
pEC50 (MCR-1): 4.62
MC-1 Max (pmole) cAMP produced (MCR-1): 12.48 pmol
pEC50 (MCR-3): < 4.30

CNC(CN)CCCCN1Cc2ccccc2C(CNC2CCCCC2)C1c1ccc(Oc2ccccc2)cc1 (centres unmarked) [TRG 2405-252]
pEC50 (MCR-5): < 4.30
MC-4 Max (pmole) cAMP produced (MCR-4 [1]): 39.24 pmol
pEC50 (MCR-4 [1]): 4.73
pEC50 (MCR-1): 4.80
MC-1 Max (pmole) cAMP produced (MCR-1): 33.07 pmol
pEC50 (MCR-3): < 4.30
inhibition of arachidonic acid induced dermal inflammation [3, 4]: inhibition of arachidonic acid induced dermal inflammation
inflammation in response to arachadonic acid administration [3]: reduced inflammation

CCCOc1ccc(C2C(CNC3CCCCC3)c3ccccc3CN2CCCCC(CN)NC)cc1 (centres unmarked) [TRG 2405-253]
pEC50 (MCR-5): < 4.30
MC-4 Max (pmole) cAMP produced (MCR-4 [1]): 69.11 pmol
pEC50 (MCR-4 [1]): 4.78
pEC50 (MCR-1): 5.07
MC-1 Max (pmole) cAMP produced (MCR-1): 22.55 pmol
pEC50 (MCR-3): < 4.30
inhibition of arachidonic acid induced dermal inflammation [3, 4]: inhibition of arachidonic acid induced dermal inflammation
inflammation in response to arachadonic acid administration [3]: reduced inflammation

CNC(CN)CCCCN1Cc2ccccc2C(CNC2CCCCC2)C1c1ccc2cccc(O)c2n1 (centres unmarked) [TRG 2405-262]
pEC50 (MCR-5): < 4.30
pEC50 (MCR-4 [1]): < 4.30
pEC50 (MCR-1): < 4.30
pEC50 (MCR-3): < 4.30

CNC(CN)CCCCN1Cc2ccccc2C(CN)C1c1ccc(Cl)cc1Cl (centres unmarked) [TRG 2407-39]
pIC50 (MCR-4 [2]; TRG 2406 and TRG 2407 libraries, inhibition of binding of 125I-HP 467): 6.96

CCNc1ccc(C2C(CNC3CCCCC3)c3ccccc3CN2CCCCC(CN)NC)cc1 (centres unmarked) [TRG 2408-30]
pEC50 (MCR-1): 5.55
MC-1 Max (pmole) cAMP produced (MCR-1): 125.79 pmol
pIC50 (MCR-4 [2]; [5]): 4.34

CCNc1ccc(C2C(CNCc3ccccc3O)c3ccccc3CN2CCCC(CN)NCCc2ccccc2)cc1 (centres unmarked) [TRG 2408-57]
pEC50 (MCR-1): > 7.00
pIC50 (MCR-4 [2]; [5]): 5.22

CCNc1ccc(C2C(CNC3CCCCC3)c3ccccc3CN2CCCC(CN)NCCc2ccccc2)cc1 (centres unmarked) [TRG 2408-62]
pEC50 (MCR-1): > 7.00
pIC50 (MCR-4 [2]; [5]): 5.58

CCCCNc1ccc(C2C(CNCc3ccccc3O)c3ccccc3CN2CCCCC(CN)NC)cc1 (centres unmarked) [TRG 2409-2]
pEC50 (MCR-1): 6.00
MC-1 Max (pmole) cAMP produced (MCR-1): 200 pmol
reduction in the level of arachidonic acid-induced dermal inflammation ([3]; HP 228 100 μg/mouse): dose dependent reduction in the level of arachidonic acid-induced dermal inflammation
inflammation in response to arachadonic acid administration [3]: reduced inflammation
pIC50 (MCR-4 [2]; [6]): 4.97

CCCCNc1ccc(C2C(CNC3CCCCC3)c3ccccc3CN2CCCCC(CN)NC)cc1 (centres unmarked) [TRG 2409-14]
pEC50 (MCR-1): 6.06
MC-1 Max (pmole) cAMP produced (MCR-1): 170 pmol
reduction in the level of arachidonic acid-induced dermal inflammation ([3]; HP 228 100 μg/mouse): decreased dermal inflammation to a lesser extent than TRG 2409-2
inflammation in response to arachadonic acid administration [3]: reduced inflammation
pIC50 (MCR-4 [2]; [6]): 4.82
